Laboratory results as given in patent US20150140088A1, “SPIROSTEROID SYSTEMS ACTING AS NEUROPROTECTIVE AND ANTI-INFLAMMATORY AGENTS” (priority 2011, published 2015).

Test system: PC12 cells exposed to L-glutamate
Test: Anti-glutamatergic effect on PC12 cells exposed to L-glutamate (MTT cellular vitality)
Format: cell-based
Conditions: 10 μM; PC12 cells exposed to L-glutamate (20 mM) for 24 h; result in words
Procedure: PC12 constitute a neuron-like cell line widely employed in several models of neurological diseases. The patophysiological mechanisms which can be simulated in those in vitro models, allows the use of PC12 cells in evaluation of therapeutic candidates.
The synthetic spirosteroids series (10 μM of each molecule) was evaluated on PC12 cells exposed to L-glutamate (20 mM) for 24 h. Previously, those cells were routinely cultivated in RPMI 1640 medium, supplemented with equine serum (10%) and fetal bovine serum (5%) in a 37° C. and 5% CO2 atmosphere. In the beginning of the experiment, cells were seeded in 96-well microplates at a cellular density of 150,000 cells/mL. After 24 h of exposition to glutamatergic damage and spirosteroids treatment, cellular vitality was determined with 3-(4,5-dimethylthiazol-2-yl)-2,5-diphenyltetrazolium bromide (MTT), which is metabolized by mitochondrial deshydrogenases in living cells. […] All molecules of the synthetic spirosteroids series were non cytotoxic at the concentration employed for the in vitro anti-glutamatergic assay (data no shown).

Row | SMILES | anti-glutamatergic and neuroprotector effect
1 | C[C@@H]1CC[C@@]2(OC1)O[C@H]1C[C@H]3[C@@H]4CC(=O)C5CC(=O)CC[C@]5(C)[C@H]4CC[C@]3(C)[C@H]1[C@@H]2C (stereo partly drawn) [3,6-dione-(25R)-spirostan] | most active
2 | C[C@@H]1CC[C@@]2(OC1)O[C@H]1C[C@H]3[C@@H]4CC(=O)C5C[C@H](O)[C@H](O)C[C@]5(C)[C@H]4CC[C@]3(C)[C@H]1[C@@H]2C (stereo partly drawn) [2α,3α-dyhydroxy-(25R)-spirostan-6-one] | most active
